In the NIST ThermoML archive (doi:10.1021/acs.jced.6b00673):
Where “and” joins values, the source holds several entries; their conditions need not be identical. Equal entries are not always repeated. Numbers after ± are expanded uncertainties.

Conditions: Liquid, Closed cell (Static) method

F/C=C/C(F)(F)F [trans-1,3,3,3-tetrafluoropropene]
Conditions	vapor or sublimation pressure
235.01 K	40.19 ± 1.2 kPa
235.17 K	40.58 ± 1.2 kPa
239.05 K	49.6 ± 1.2 kPa
239.07 K	49.6 ± 1.2 kPa and 49.61 ± 1.2 kPa
242.03 K	57.54 ± 1.2 kPa
242.04 K	57.54 ± 1.2 kPa
245.15 K	66.85 ± 1.2 kPa
245.16 K	66.94 ± 1.2 kPa and 66.9 ± 1.2 kPa
247.99 K	76.45 ± 1.2 kPa
248.02 K	76.52 ± 1.2 kPa
249.38 K	81.49 ± 1.2 kPa
250.68 K	86.48 ± 1.2 kPa
250.72 K	86.57 ± 1.2 kPa
252.24 K	92.69 ± 1.2 kPa and 92.75 ± 1.2 kPa
252.58 K	94.2 ± 1.2 kPa
256.25 K	110.47 ± 1.2 kPa
258.72 K	122.66 ± 1.2 kPa
258.74 K	122.75 ± 1.2 kPa
262.01 K	140.52 ± 1.2 kPa
264.78 K	157.04 ± 1.2 kPa
268.27 K	179.98 ± 1.2 kPa
271.72 K	205.14 ± 1.2 kPa
274.51 K	227.45 ± 1.2 kPa
277.43 K	252.66 ± 1.2 kPa
280.73 K	283.77 ± 1.3 kPa
284.07 K	318.06 ± 1.3 kPa
287.25 K	353.65 ± 1.3 kPa
290.51 K	393.03 ± 1.3 kPa
293.33 K	429.86 ± 1.4 kPa
296.67 K	476.7 ± 1.4 kPa
299.73 K	523.05 ± 1.4 kPa
302.71 K	571.25 ± 1.4 kPa
303.98 K	592.72 ± 1.5 kPa
306.42 K	635.82 ± 1.5 kPa and 635.84 ± 1.5 kPa
308.5 K	674.57 ± 1.5 kPa
311.91 K	741.32 ± 1.6 kPa and 741.51 ± 1.6 kPa
314.3 K	791.29 ± 1.6 kPa
314.31 K	791.42 ± 1.6 kPa
316.04 K	829.03 ± 1.7 kPa and 829.14 ± 1.7 kPa
318.53 K	885.61 ± 1.7 kPa
319.38 K	905.41 ± 1.8 kPa and 905.49 ± 1.8 kPa
320.96 K	943.34 ± 1.8 kPa
323.48 K	1006.1 ± 1.9 kPa
325.23 K	1051.7 ± 1.9 kPa
327.75 K	1119.9 ± 2 kPa
329.78 K	1177.5 ± 2.1 kPa
332.09 K	1245.2 ± 2.1 kPa
334.3 K	1312.8 ± 2.2 kPa
336.51 K	1383.2 ± 2.3 kPa
338.43 K	1446.6 ± 2.4 kPa
340.44 K	1515 ± 2.5 kPa
342.65 K	1593.5 ± 2.6 kPa
344.94 K	1678 ± 2.7 kPa
347.25 K	1766.4 ± 2.8 kPa
349.48 K	1855 ± 2.9 kPa
351.21 K	1926.4 ± 3 kPa
353.31 K	2015.3 ± 3.1 kPa
355.52 K	2112.5 ± 3.3 kPa
358.52 K	2250 ± 3.5 kPa
360.61 K	2349.9 ± 3.7 kPa
362.53 K	2444.8 ± 3.8 kPa
364.71 K	2556.2 ± 4 kPa
366.86 K	2669.6 ± 4.2 kPa
367.85 K	2724.3 ± 4.2 kPa
368.95 K	2784.2 ± 4.3 kPa
369.85 K	2835.5 ± 4.4 kPa
371.01 K	2900.6 ± 4.5 kPa
371.91 K	2953.8 ± 4.6 kPa
372.81 K	3005.5 ± 4.7 kPa
374.07 K	3082.4 ± 4.8 kPa
374.9 K	3131.7 ± 4.9 kPa
376.04 K	3203.1 ± 5 kPa
377.04 K	3265.4 ± 5.1 kPa
377.94 K	3323.5 ± 5.2 kPa
378.57 K	3364.9 ± 5.2 kPa
379.16 K	3402.3 ± 5.3 kPa
379.51 K	3425.9 ± 5.3 kPa
379.87 K	3450.3 ± 5.4 kPa
380.02 K	3459.7 ± 5.4 kPa
380.51 K	3493.5 ± 5.4 kPa
